These results are taken from BindingDB's records for patent US20250163072 (Hoffmann-La Roche, 2025).

The IC50 is the concentration at which inhibition is half-maximal. High values mean a need for much substance, low ones inhibition by little substance.

GTPase KRas [G12C]/Serine/threonine-protein kinase B-raf, sequence (P01116 whole entry G12C): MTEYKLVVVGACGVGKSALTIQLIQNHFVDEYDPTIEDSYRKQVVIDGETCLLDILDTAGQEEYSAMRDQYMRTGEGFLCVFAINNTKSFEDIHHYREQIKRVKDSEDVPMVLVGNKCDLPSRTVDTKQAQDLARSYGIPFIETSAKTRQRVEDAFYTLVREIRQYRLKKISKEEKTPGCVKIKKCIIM
GTPase KRas [G12C]/Serine/threonine-protein kinase B-raf, sequence (P15056 2-766 limits assumed): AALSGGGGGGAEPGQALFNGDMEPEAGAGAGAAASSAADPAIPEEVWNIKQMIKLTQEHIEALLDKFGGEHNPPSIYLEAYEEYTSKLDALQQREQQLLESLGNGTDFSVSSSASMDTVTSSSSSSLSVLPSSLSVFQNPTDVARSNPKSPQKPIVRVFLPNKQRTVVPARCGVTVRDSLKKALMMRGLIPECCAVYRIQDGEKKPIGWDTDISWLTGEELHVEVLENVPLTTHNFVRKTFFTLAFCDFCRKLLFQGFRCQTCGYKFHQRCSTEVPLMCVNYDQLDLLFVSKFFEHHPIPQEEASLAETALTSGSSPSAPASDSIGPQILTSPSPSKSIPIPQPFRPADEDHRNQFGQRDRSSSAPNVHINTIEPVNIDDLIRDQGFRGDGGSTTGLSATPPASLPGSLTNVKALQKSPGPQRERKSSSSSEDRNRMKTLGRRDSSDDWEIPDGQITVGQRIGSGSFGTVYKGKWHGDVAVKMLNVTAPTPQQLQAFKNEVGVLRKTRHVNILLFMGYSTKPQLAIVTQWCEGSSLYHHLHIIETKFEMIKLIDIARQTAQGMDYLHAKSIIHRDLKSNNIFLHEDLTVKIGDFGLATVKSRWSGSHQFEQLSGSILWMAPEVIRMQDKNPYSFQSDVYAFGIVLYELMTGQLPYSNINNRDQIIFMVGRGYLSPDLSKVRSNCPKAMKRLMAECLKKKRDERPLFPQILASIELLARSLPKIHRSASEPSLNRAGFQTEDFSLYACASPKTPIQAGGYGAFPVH

This assay has as its target GTPase KRas [G12C]/Serine/threonine-protein kinase B-raf (Human, UniProt P01116+P15056, G12C). In words: KRAS G12C-BRAF NanoBit Assay. Here is the method:
HEK293 cells were grown and maintained using DMEM medium (Thermo Fisher Scientific) with 10% fetal bovine serum and 1% penicillin/streptomycin. Both KRAS G12C and BRAF RBD were cloned into the NanoBit vectors ([…] vectors system, Promega) with the orientations SmBit-KRAS G12C and BRAF RBD-LgBit, respectively, and co-transfected into HEK293 cells. Cells were then selected with 100 μg/mL Hygromycin B (10687010, Thermo Fisher) and Blasticidin (5 μg/mL) for 4 weeks to get the stable cell pool. On the day of the assay, 75 nL of compound solution was presented in a 384-well assay plate as a 16-point 3-fold dilution starting from a final concentration of 30 μM in DMSO. Then cells were seeded at 10,000 cells/25 μL/well in a 384-well plate. After 3 hours of incubation, 6 μL of volume of Nano-Glo Live Cell Substrate (Promega) was added into each well. Monitor luminescence using ultra384 model in Envision at 20 minutes. Compounds that facilitate disruption of the KRAS G12C-BRAF RBD complex were identified as those eliciting a decrease of luminescence relative to DMSO control wells.
As for `CCn1c(-c2cccnc2[C@H](C)OC)c2c3cc(ccc31)-c1cc(O)cc(c1)C[C@H](NC(=O)[C@H](C(C)C)N(C)C(=O)C1CN(C(=O)CCl)C1)C(=O)N1CCC[C@H](N1)C(=O)OCC(C)(C)C2` [US20250163072, Example RM461], the IC50 was found to be 440 nM.
The result for `CCn1c(-c2cccnc2[C@H](C)OC)c2c3cc(ccc31)-c1cc(O)cc(c1)C[C@H](NC(=O)[C@H](C(C)C)N(C)C(=O)C1CCN(C(=O)C#CCN3CCOCC3)C1)C(=O)N1CCC[C@H](N1)C(=O)OCC(C)(C)C2` (stereo partly drawn) [US20250163072, Example RM018] reads 268 nM; that for `CC(C)[C@@H](C(=O)N[C@H]1Cc2cc(O)cc(c2)-c2ccc3c(C(C)(C)C#N)cn(c3c2)CC(C)(C)COC(=O)[C@@H]2CCCN(N2)C1=O)N1CCCC2(CCN(C(=O)CCl)C2)C1=O` (stereo partly drawn) [US20250163072, Example RM351], 1780 nM.
